US20090264384A1, “INDOLE, BENZIMIDAZOLE, AND BENZOLACTAM BORONIC ACID COMPOUNDS, ANALOGS THEREOF AND METHODS OF USE THEREOF” (Nuada, Inc., priority 2004, published 2009)

How the values were obtained:
HERG channel = HERG channel (Homo sapiens, UniProt Q12809); test: ADME-Tox: QT Prolongation, HERG (patch-clamp)
hERG = hERG (Homo sapiens, UniProt Q12809); test: ADME-Tox: QT Prolongation, HERG (patch-clamp); conditions: human, HEK-293 cells stably expressing HERG
Phosphodiesterase 1 = Phosphodiesterase 1 enzyme assay; assay type: biochemical, bovine; conditions: 1.0E−05 M
TNF-α production by PMBC = test: Inhibition of TNF-α Production By Peripheral Blood Monocyte Cells (PMBC), LPS stimulated; assay type: cell-based; conditions: 1 ug/mL LPS, 24 hours
σ (non-selective) = σ (non-selective) binding assay; design: species or system rat; conditions: 1.0E−05 M
MAO-A(h) = target: T1, MAO-A(h) (Homo sapiens, UniProt P21397); test: MAO-A(h) enzyme assay; assay type: biochemical; conditions: 1.0E−05 M
T1 construct: human placenta; from tissue; host or cells: human placenta

NK1(h) = target: T2, NK1(h) (Homo sapiens, UniProt P25103); test: NK1(h) binding assay; conditions: read-out: % Inhibition of Control Specific Binding
T2 construct: NK1(h); U-373MG cells; [Sar^9,Met(O2)^11]-SP; Heuillet et al. (1993); endogenous in cells; host or cells: U-373MG cells

Guanylyl cyclase (basal) = target: T3, Guanylyl cyclase (basal) (Bos taurus, UniProt P16068+P19687); test: Guanylyl cyclase (basal) enzyme assay; assay type: biochemical, bovine; conditions: 1.0E−05 M
T3 construct: bovine lung; from tissue; host or cells: bovine lung

Glucocorticoid(h) (GR) = target: T4, Glucocorticoid(h) (GR) (Homo sapiens, UniProt P04150); test: Glucocorticoid(h) (GR) binding assay; conditions: 1.0E−05 M; read-out: % Inhibition of Control Specific Binding
T4 construct: Glucocorticoid(h); IM-9 cells; dexamethasone; Clark et al. (1996); endogenous in cells; host or cells: IM-9 cells (cytosol)

Opiate (non-selective) = Opiate (non-selective) binding assay; design: species or system rat; conditions: 1.0E−05 M
[1] = tested on: colitis provoked by trinitrobenzene sulphonic acid (TNBS); test: Rat model of colitis provoked by TNBS, 3 days, treatment from Day −1 (CCI-7155, CCI-7156); assay type: in vivo; conditions: vs CMC group
Method: The effects of CCI-7155 and CCI-7156, were evaluated in the TNBS model at one and two oral dose levels, administered twice a day by gavage, treatment commencing 1 day prior to challenge. A low intracolonic concentration of TNBS (10 mg) was used, known to produce reproducible yet not unduly severe mucosal injury in the colon, determined 3 days after instillation. Colonic macroscopic injury has been assessed, as has colonic weight as a reflection of colonic oedema and wet/dry weight to determine colonic water content, along with determination of myeloperoxidase (MPO) activity (Bradley et al, 1982) as an index of white cell infiltration for the evaluation of tissue injury. In addition to the test compounds [CCI-7155 and CCI-7156], the actions of sulfasalazine, a well-established and currently used treatment has also been evaluated in this model.
TNBS Challenge—Male Wistar rats (230-280 g) were randomised into groups of 8-10 before commencement of the study. Food was withdrawn 18 h (overnight) before TNBS administration, but the rats were allowed free access to drinking water. On the morning of the day of challenge, Day 0, the rats were transiently anaesthetised with ether and TNBS (10 mg in 0.25 ml of 50% ethanol) was instilled approximately 6-8 cm into the colon using a soft plastic catheter inserted in the rat rectum. The rats were allowed to recover with free access to food and drinking water. At the end of the experiment, 72 h after TNBS administration (i.e. on the morning of Day 3, between 9.00 and 11.00), the distal colon was dissected, and the distal 8 cm photographed and stored appropriately for subsequent analyses.
The following primary parameters were measured in the main study: (a) macroscopic scoring of distal 8 cm of colon; (b) myeloperoxidase levels in segments of distal 8 cm of colon. In addition, the weight of the colonic segment was assessed as an indirect and non-specific marker of oedema, and this was supported by measurement of the wet/dry ratio as an index of water content. The body weight of the animals was also determined and expressed as % change from the day of challenge.
Treatments. All challenged groups were dosed orally twice daily from Day −1. The groups for study were:
The compounds were thus administered orally, twice daily and given on Day −b 1 before TNBS administration, on Day 0, the day of TNBS administration and on Day 1 and 2. Tissues were removed 72 h after TNBS administration (on Day3). Dosing was performed once in the morning (Between 9:00 and 11:00) and once in the late afternoon (between 18:00 and 20:00).
Preparation of Compound. CCI-7155 and CCI-7156 were suspended in 0.5% w/v carboxy methyl cellulose in sterile water, to produce a smooth suspension as instructed, and administered in a volume of 2 ml/kg (˜0.5 ml per rat per dose).
Preparation of Sulfasalazine. the Doses of Sulfasalazine Used in the Present study were derived from previously published work with this agent in the TNBS model (Boughton-Smith et al, 1988; Sykes et al, 1999; Galvez et al, 2000; Bobin-Dubigeon et al, 2001). Sulfasalazine was suspended in carboxy methyl cellulose (0.5% w/v in sterile water; Sigma Chemical Co, compound reference M-0262) and administered p.o. in a volume of 0.5 ml. In previous studies in these laboratories, this concentration of carboxy methyl cellulose (CMC) had no significant effect on the extent of colitis as determined by macroscopic injury and changes in inflammatory markers following TNBS challenge.
Macrocopic Injury. The distal 8 cm portion of the colon (measured from the rectum) was removed, opened longitudinally and gently rinsed with ice-cold phosphate buffer (PBS; pH 7.4), blotted, weighed (Scaltec, Germany) and photographed (Samsung, Digimax 340, digital camera). The tissue was then cut into longitudinal strips, each strip being thus 8 cm long and included the whole of the zone of injury. […]

[2] = 50 mg/kg/day p.o. in divided doses, 72 h after TNBS

Chain of HERG channel (Q12809 whole entry): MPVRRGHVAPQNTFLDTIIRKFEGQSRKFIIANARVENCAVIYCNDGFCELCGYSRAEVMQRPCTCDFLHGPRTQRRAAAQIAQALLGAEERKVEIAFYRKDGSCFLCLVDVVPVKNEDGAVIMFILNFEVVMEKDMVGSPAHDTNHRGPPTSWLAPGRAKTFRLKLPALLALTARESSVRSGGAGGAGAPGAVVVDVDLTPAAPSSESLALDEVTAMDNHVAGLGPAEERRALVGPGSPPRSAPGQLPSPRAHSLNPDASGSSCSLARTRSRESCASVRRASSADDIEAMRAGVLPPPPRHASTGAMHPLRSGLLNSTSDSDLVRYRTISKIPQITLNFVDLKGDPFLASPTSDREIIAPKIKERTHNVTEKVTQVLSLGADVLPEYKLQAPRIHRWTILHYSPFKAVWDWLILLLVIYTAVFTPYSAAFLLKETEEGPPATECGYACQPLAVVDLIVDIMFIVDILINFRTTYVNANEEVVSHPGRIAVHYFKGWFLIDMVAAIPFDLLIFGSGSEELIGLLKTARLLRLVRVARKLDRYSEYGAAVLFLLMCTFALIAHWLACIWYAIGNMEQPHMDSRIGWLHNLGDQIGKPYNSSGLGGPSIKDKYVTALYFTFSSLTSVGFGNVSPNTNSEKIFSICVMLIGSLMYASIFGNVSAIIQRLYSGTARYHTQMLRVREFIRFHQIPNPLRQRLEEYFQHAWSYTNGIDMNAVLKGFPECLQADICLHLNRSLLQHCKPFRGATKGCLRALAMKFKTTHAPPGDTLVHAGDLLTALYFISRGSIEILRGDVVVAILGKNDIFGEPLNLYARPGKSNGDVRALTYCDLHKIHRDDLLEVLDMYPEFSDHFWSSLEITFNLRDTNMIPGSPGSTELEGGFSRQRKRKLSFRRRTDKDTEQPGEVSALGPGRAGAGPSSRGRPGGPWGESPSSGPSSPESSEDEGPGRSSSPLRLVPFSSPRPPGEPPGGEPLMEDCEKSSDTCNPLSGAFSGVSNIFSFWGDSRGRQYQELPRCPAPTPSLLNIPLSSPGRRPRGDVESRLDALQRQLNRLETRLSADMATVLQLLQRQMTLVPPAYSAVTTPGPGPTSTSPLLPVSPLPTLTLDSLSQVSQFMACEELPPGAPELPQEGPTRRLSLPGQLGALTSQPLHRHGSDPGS
T2 sequence (P25103 whole entry): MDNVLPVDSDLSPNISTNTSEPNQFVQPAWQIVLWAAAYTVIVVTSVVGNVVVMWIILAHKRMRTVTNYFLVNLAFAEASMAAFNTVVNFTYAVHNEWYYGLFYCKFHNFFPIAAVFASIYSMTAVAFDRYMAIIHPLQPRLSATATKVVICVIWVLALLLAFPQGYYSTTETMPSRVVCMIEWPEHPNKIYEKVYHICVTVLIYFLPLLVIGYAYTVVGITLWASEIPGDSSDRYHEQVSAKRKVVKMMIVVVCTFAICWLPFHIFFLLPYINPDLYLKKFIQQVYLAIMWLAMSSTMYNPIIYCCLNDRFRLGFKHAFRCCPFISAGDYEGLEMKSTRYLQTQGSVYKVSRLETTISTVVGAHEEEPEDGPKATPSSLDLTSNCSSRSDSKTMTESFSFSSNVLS
Chain of hERG (Q12809 whole entry): as the sequence (Q12809 whole entry) above
T3 sequence (P19687 whole entry): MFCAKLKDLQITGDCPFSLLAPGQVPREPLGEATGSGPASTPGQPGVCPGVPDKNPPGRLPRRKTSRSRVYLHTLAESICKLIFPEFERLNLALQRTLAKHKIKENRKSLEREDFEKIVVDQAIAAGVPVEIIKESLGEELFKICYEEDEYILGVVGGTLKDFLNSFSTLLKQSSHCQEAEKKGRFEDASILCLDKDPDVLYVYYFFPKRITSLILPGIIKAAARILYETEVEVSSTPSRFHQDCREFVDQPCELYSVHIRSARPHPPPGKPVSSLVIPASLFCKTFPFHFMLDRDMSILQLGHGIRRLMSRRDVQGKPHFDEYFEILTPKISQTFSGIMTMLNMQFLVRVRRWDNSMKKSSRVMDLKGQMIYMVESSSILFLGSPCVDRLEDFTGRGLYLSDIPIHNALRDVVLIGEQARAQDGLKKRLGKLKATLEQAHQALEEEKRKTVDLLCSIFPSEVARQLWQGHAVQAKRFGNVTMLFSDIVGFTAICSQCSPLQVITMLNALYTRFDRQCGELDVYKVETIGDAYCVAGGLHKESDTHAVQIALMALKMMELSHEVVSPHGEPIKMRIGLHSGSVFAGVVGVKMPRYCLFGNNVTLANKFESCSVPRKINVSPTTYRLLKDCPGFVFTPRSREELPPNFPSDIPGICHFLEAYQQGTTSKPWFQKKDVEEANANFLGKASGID
T3 sequence (P16068 whole entry): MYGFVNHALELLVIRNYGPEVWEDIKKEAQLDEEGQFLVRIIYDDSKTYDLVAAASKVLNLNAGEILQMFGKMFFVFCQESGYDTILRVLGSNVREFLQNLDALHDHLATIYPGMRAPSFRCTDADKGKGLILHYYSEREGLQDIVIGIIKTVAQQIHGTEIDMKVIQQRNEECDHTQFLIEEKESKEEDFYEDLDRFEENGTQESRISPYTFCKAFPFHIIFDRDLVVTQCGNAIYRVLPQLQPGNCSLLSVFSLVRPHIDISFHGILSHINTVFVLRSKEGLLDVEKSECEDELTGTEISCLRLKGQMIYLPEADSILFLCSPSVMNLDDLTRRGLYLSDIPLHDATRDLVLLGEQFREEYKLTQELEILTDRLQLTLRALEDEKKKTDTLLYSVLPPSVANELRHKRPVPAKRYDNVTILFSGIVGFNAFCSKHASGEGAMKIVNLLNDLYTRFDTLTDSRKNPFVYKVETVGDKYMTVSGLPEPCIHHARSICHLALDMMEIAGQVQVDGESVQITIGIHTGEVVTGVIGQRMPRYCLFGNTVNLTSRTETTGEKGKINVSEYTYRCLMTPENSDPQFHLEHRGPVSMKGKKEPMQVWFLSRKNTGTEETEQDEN
T1 sequence (P21397 whole entry): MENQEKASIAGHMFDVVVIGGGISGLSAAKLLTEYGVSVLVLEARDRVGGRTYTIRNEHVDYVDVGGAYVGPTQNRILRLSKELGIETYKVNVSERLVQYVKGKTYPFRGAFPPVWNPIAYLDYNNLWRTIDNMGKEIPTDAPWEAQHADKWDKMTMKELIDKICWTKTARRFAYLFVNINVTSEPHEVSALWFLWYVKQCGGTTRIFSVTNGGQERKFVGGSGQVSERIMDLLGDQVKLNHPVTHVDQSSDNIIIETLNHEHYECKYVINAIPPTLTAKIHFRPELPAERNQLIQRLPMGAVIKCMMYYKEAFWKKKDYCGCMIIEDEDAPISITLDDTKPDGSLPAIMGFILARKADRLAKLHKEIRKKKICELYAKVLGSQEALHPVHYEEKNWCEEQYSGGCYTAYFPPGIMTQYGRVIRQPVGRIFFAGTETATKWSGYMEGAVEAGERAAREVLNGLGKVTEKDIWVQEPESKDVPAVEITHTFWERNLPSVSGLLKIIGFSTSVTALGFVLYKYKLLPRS

SMILES | Potency Ranking (HERG channel; HERG-channel blocker ranking, from 1 μM test (Table 17)) | HERG-channel blocker potency class (HERG channel; general potency ranking system (Roche et al.)) | inhibition at 1 µM (hERG) | % Inhibition of Control Values (Phosphodiesterase 1) | IC50 (TNF-α production by PMBC) | % Inhibition of Control Specific Binding (σ (non-selective)) | % Inhibition of Control Values (MAO-A(h)) | inhibition at 10 µM (NK1(h)) | % Stimulation Relative to Control (Guanylyl cyclase (basal)) | inhibition at 10 µM (Glucocorticoid(h) (GR)) | % Inhibition of Control Specific Binding (Opiate (non-selective)) | attenuation of TNBS-induced fall in body weight (% change in body weight at Day 0) ([1]; 50 mg/kg/day p.o. in divided doses b.i.d.) | reduction in area of macroscopic colonic injury [1, 2] | reduction in colon weight [1, 2] | reduction in colonic MPO levels [1, 2] | reduction in colonic water content (wet/dry weight) [1, 2]
N#Cc1ccc2c(ccn2CCCCCB(O)O)c1 [Example 20, 5-(5-cyano-1H-indol-1-yl)pentylboronic acid] | Moderate (Moderate, 1 μM<IC50<10 μM) | moderate | 31.1% | 7% | 0.75 µM | 5% | 6% | 12% | 0% | -7% | 20% |  |  |  |  | 
O=C(O)c1cc(/N=N/c2ccc(S(=O)(=O)Nc3ccccn3)cc2)ccc1O [sulfasalazine, reference compound] |  |  |  |  |  |  |  |  |  |  |  | did not reach statistical significance | significantly (P<0.001) reduced the extent of macroscopic injury | significant reduction in colon weight was also not observed | significantly reduced the elevated colonic levels of MPO | significant reduction in colon weight was also not observed
